# What was measured:
# [1] = test system: FeCl-induced thrombi; settings: NAC treatment alone, in vivo mice model; cited from earlier work
# [2] = test system: white clots; assay: Example 3: thrombolytic activity on white clots, procedures of Examples 1 and 2; format: cell-based, Porcine; settings: DiNAC: clot breakup over 10 minutes; comparators at 1 hour
# Description: In this example, use of DiNAC and other agents as anti-thrombotic agents was tested. A white clot formation in the artery system was modeled by a collagen coated glass capillary tube (Ku DN, Flannery CJ. Development of a flow-through system to create occluding thrombus, Biorheology, 2007; 44(4)273-84). Porcine blood was perfused into the capillary tube using a constant pressure head or a constant flow rate (Para AN, Ku DN. A low-volume, single pass in vitro system of high shear thrombosis in a stenosis, Thrombosis Research, 2013, 131(5):418-24). After clot formation, a thrombolytic agent was perfused into the capillary tube. The detailed capillary tube experimental protocol is summarized below.
# In this example, the thrombolytic activity of DiNAC and other lytic agents was tested, using the procedures described in Examples 1 and 2.
# [3] = test system: fibrin clots from recalcified platelet rich plasma (PRP); assay: Red clot lysis under stagnant conditions, PRP clots; format: cell-based, Porcine; settings: 48 h, DiNAC and NAC at 2 mM
# Source text: (§1) Blood Collection: Porcine blood was collected at a local abattoir immediately following slaughter into 3.5 U/mL heparin (Thermo Fisher Scientific, Waltham, MA) or 3.2% sodium citrate (Sigma-Aldrich, St. Louis, MO). Whole blood was gently agitated using an Orbit LS shaker (Laboratory Supply Network, Atkinson, NH) until perfusion and used in experiments as soon as possible the same day as collection.
# (§2) Red clot formation and lysis: Platelet rich plasma (PRP) was made by separating citrated whole blood via gravity over a 2 h period and collecting the supernatant. Separation via gravity was employed instead of centrifugation to avoid platelet damage and activation. Citrated whole blood or PRP was then recalcified with CaCl2 to a final [Ca^2+] of 10 mM (Griffin, M. T., Kim, D. & Ku, D. N. Shear-induced platelet aggregation: 3D-grayscale microfluidics for repeatable and localized occlusive thrombosis. Biomicrofluidics 13, 2019), and 200 μl was transferred into 500 μal centrifuge tubes and allowed to clot and retract for 30 min. The clot was then incubated with 100 μl of either agent or control solution. The treatment solution was exchanged by removing the top 100 μl and replacement with fresh solution at 3, 6, 12, 24, and 48 h of incubation. The weight of the tube was measured immediately post-clot formation and at each timepoint after removal of old solution and prior to the replacement with fresh solution.
# [4] = test system: fibrin clots from recalcified citrated whole blood; assay: Red clot lysis under stagnant conditions, whole blood clots; format: cell-based, Porcine; settings: whole blood clot, 48 h; DiNAC and NAC at 2 mM
# Source text: as §1, §2
# [5] = test system: VWF- and platelet-rich white thrombi; assay: Lysis of platelet-rich white thrombi in collagen-coated stenotic capillary tube under arterial shear (perfusion of lytic agents); format: cell-based, Porcine
# Description: Collagen Coating: The stenotic glass test sections (inner diameter=1.5 mm) described herein were made by the Chemistry and Biochemistry Glass Shop at Georgia Institute of Technology. The % stenosis by diameter reduction ranged from 60% to 80%. Fibrillar equine collagen (type I; Chrono-Log Corporation, Havertown, PA) was diluted 9:1 in NaCl (Sigma-Aldrich, St. Louis, MO) and incubated in the test section at the stenosis for 24 h in a warm, moist environment (Para, A., Bark, D., Lin, A. & Ku, D. Rapid platelet accumulation leading to thrombotic occlusion. Ann Biomed Eng 39, 1961-1971, 2011; Para, A. N. & Ku, D. N. A low-volume, single pass in-vitro system of high shear thrombosis in a stenosis. Thromb Res 131, 418-424, 2013).
# as §1
# Syringe Perfusion: Lightly heparinized whole blood was perfused through the stenotic test section using a syringe pump. The flow rate was set so that the initial wall shear rate in the stenosis was 3,500 s^−1. A pressure transducer was connected in-line upstream of the stenosis (FIG. 2A). A dissecting microscope with a camera (PCO-Tech Incorporated, Romulus, MI) was used to capture images in real-time during perfusion. Blood perfusion continued until the upstream pressure increased by 30 mmHg (equivalent to an arterial pressure head in vivo) as a result of platelet thrombus formation in the stenotic section. Perfusion with a syringe pump (constant flow rate over constant pressure head) ensured that the thrombi were never fully occlusive, allowing subsequent perfusion for the induction of lysis.
# (§3) Pharmacologic Agents: Recombinant human tPA (Sigma-Aldrich, St. Louis, MO), recombinant human ADAMTS-13 (MyBiosource, San Diego, CA), abciximab (ReoPro was kindly provided by Dr. Kevin Maher at Emory/CHOA), NAC (Thermo Fisher Scientific, Waltham, MA), and DiNAC (Cayman Chemical, Ann Arbor, Ml) or control (PBS) treatments were perfused for an hour at a flow rate of 1 ml/min. Agent solutions were made by dissolution or dilution in PBS. The in vitro flow system setup and image acquisition are shown in FIG. 2, and the concentrations of each agent are detailed in Table 2.
# Real-time image capture (5 frames per second) of the stenosis continued throughout treatment perfusion.
# Data Analysis: The thrombi surface area (which was colored green) was calculated using manual pixel counting in the open-source GNU Image Manipulation Program (GIMP, Version 2.10.8, 1995-2018). Surface area reduction was calculated by % pixel reduction versus the occlusion image. Analysis of variance (ANOVA) was used to test for statistical differences between groups, with the significance set at p<0.05.
# In this example, a stenotic capillary tube model, which potentiates VWF- and platelet-rich white thrombi in an arterial setting on a collagen-coated stenosis was used (Para, A., Bark, D., Lin, A. & Ku, D. Rapid platelet accumulation leading to thrombotic occlusion. Ann Biomed Eng 39, 1961-1971, 2011; Ku, D. N. & Flannery, C. J. Development of a flow-through system to create occluding thrombus. Biorheology 44, 273-284, 2007; Para, A. N. & Ku, D. N. A low-volume, single pass in-vitro system of high shear thrombosis in a stenosis. Thromb Res 131, 418-424, 2013) to test lysis of 90% occlusive white thrombi (FIG. 2) and perfused low (2 mM) and high (20 mM) concentrations of NAC and DiNAC solutions. As illustrated in FIG. 2. DiNAC, but not NAC, achieved thrombolysis over 60 minutes of perfusion (FIG. 3A-3D). 2 mM and 20 mM DiNAC lysed most of the thrombi (>95%) within 14 min and 1.5 min, respectively (FIG. 3A-3B).
# [6] = pH of DiNAC solution; format: physicochemical
# Description: as §3
# To confirm the efficacy of DiNAC, the dose response was tested at increasing concentrations of 0.02, 0.2, 2, and 20 mM. The thrombus area reduction was dependent on the concentration of DiNAC (FIG. 4). […] Considering the practical use of the DiNAC as a thrombolytic in a clinical setting, the 20 mM DiNAC with sodium bicarbonate to a final pH=7. Neutralization of 20 mM DiNAC reduced the variance from 47% to 12% in surface area reduction (44±47% vs 59±12%, p=0.77, FIG. 4).
# [7] = test system: platelet-rich thrombi from heparinized human whole blood; assay: Example 4: thrombolysis of human blood thrombi in 3 mm collagen-coated stenotic capillary tubes; format: cell-based; settings: human whole blood thrombus
# Description: In this example, an in-vitro randomized trial was performed using heparinized human blood in collagen-coated glass capillary tubes with a designed stenosis, mimicking arterial disease. Heparinized human blood was then infused through 3 mm capillary tubes at a constant flow rate, during which near-occlusive thrombi were formed at the region of stenosis (FIG. 11). DiNAC was then infused at a constant flow rate through the capillary tubes in order to observe thrombolytic activity, using a combination of live pressure monitoring and microscopic image capture. All infusions were control-matched with a phosphate-buffered saline solution in lieu of DiNAC.
# [8] = test system: FeCl3 injury-induced thrombus; set-up: dose or concentration left out as unconfirmed; settings: after a 60 min treatment; FeCl3 injury in vivo; ADAMTS-13; cited from earlier work
molecule,measurement,setting,value
"CC(=O)N[C@@H](CS)C(=O)O [NAC, N-acetylcysteine, reference compound]",reperfusion,[1],< 40%
same,thrombolytic activity on white clots,[2],minimal effects with no perfusion at 1 hour
same,PRP clot lysis over 48 h,[3],no effect on red clots
same,whole blood clot lysis over 48 h,[4],no effect on red clots
same,lysis on perfusion,"[5]; 2 mM and 20 mM, 60 min perfusion",minimal lysis
same,thrombus surface area reduction,"[5]; 2 mM, 60 min perfusion",< 20%
same,lysis after 60 min perfusion,"[5]; 20 mM, 60 min",minimal lysis
"CC(=O)N[C@@H](CSSC[C@H](NC(C)=O)C(=O)O)C(=O)O [DiNAC, N,N′-diacetyl-cystine]",thrombolytic activity on white clots,[2],highly effective at causing lysis of white clots
same,PRP clot lysis over 48 h,[3],no effect on red clots
same,whole blood clot lysis over 48 h,[4],no effect on red clots
same,pH of solution,[6]; 2 mM solution,7
same,pH of solution,[6]; 20 mM solution,2
same,time to complete lysis of the white clot,[7]; 20 mM perfusion,≤ 10 min
same,thrombus area vs control,"[5]; 0.02 mM, 60 min perfusion",not significantly different from the control
same,thrombus area reduction,"[5]; 0.2 mM, 60 min perfusion",46±15%
same,thrombus surface area reduction,"[5]; 20 mM acidic solution (not neutralized), 60 min perfusion",44±47%
same,thrombus surface area reduction,"[5]; 20 mM neutralized with sodium bicarbonate to pH=7, 60 min perfusion",59±12%
"ADAMTS-13: recombinant human ADAMTS-13, a protease that cleaves VWF (protein, UniProt Q76LX8 75-1427, looked up) A disintegrin and …: AAGGILHLELLVAVGPDVFQAHQEDTERYVLTNLNIGAELLRDPSLGAQFRVHLVKMVILTEPEGAPNITANLTSSLLSVCGWSQTINPEDDTDPGHADLVLYITRFDLELPDGNRQVRGVTQLGGACSPTWSCLITEDTGFDLGVTIAHEIGHSFGLEHDGAPGSGCGPSGHVMASDGAAPRAGLAWSPCSRRQLLSLLSAGRARCVWDPPRPQPGSAGHPPDAQPGLYYSANEQCRVAFGPKAVACTFAREHLDMCQALSCHTDPLDQSSCSRLLVPLLDGTECGVEKWCSKGRCRSLVELTPIAAVHGRWSSWGPRSPCSRSCGGGVVTRRRQCNNPRPAFGGRACVGADLQAEMCNTQACEKTQLEFMSQQCARTDGQPLRSSPGGASFYHWGAAVPHSQGDALCRHMCRAIGESFIMKRGDSFLDGTRCMPSGPREDGTLSLCVSGSCRTFGCDGRMDSQQVWDRCQVCGGDNSTCSPRKGSFTAGRAREYVTFLTVTPNLTSVYIANHRPLFTHLAVRIGGRYVVAGKMSISPNTTYPSLLEDGRVEYRVALTEDRLPRLEEIRIWGPLQEDADIQVYRRYGEEYGNLTRPDITFTYFQPKPRQAWVWAAVRGPCSVSCGAGLRWVNYSCLDQARKELVETVQCQGSQQPPAWPEACVLEPCPPYWAVGDFGPCSASCGGGLRERPVRCVEAQGSLLKTLPPARCRAGAQQPAVALETCNPQPCPARWEVSEPSSCTSAGGAGLALENETCVPGADGLEAPVTEGPGSVDEKLPAPEPCVGMSCPPGWGHLDATSAGEKAPSPWGSIRTGAQAAHVWTPAAGSCSVSCGRGLMELRFLCMDSALRVPVQEELCGLASKPGSRREVCQAVPCPARWQYKLAACSVSCGRGVVRRILYCARAHGEDDGEEILLDTQCQGLPRPEPQEACSLEPCPPRWKVMSLGPCSASCGLGTARRSVACVQLDQGQDVEVDEAACAALVRPEASVPCLIADCTYRWHVGTWMECSVSCGDGIQRRRDTCLGPQAQAPVPADFCQHLPKPVTVRGCWAGPCVGQGTPSLVPHEEAAAPGRTTATPAGASLEWSQARGLLFSPAPQPRRLLPGPQENSVQSSACGRQHLEPTGTIDMRGPGQADCAVAIGRPLGEVVTLRVLESSLNCSAGDMLLLWGRLTWRKMCRKLLDMTFSSKTNTLVVRQRCGRPGGGVLLRYGSQLAPETFYRECDMQLFGPWGEIVSPSLSPATSNAGGCRLFINVAPHARIAIHALATNMGAGTEGANASYILIRDTHSLRTTAFHGQQVLYWESESSQAEMEFSEGFLKAQASLRGQYWTLQSWVPEMQDPQSWKGKEGT",thrombolytic activity on white clots,[2],minimal effects with no perfusion at 1 hour
same,PRP clot lysis over 48 h,[3],no effect on red clots
same,whole blood clot lysis over 48 h,[4],no effect on red clots
same,reduction of thrombus size,[8],62.3%
same,effect on clots and flow,[7]; perfusion,did not alter the clots or restore flow
same,thrombus area reduction,"[5]; 1 g/mL (Table 2), 60 min perfusion",19±8%
"Abciximab: inhibits platelet thrombus formation by blocking the glycoprotein IIb/IIIa through an antibody (antibody, chains of the INN, looked up, V domains shown, Fab) VH: EVQLQQSGTVLARPGASVKMSCEASGYTFTNYWMHWVKQRPGQGLEWIGAIYPGNSDTSYIQKFKGKAKLTAVTSTTSVYMELSSLTNEDSAVYYCTLYDGYYVFAYWGQGTLVTVSA VL: EIVLTQSPVTLSVTPGDSVSLSCRASRDISNNLHWFQQTSHESPRLLIKYASQSMSGIPSRFSGSGSGTDFTLSINSVETEDFGMYFCQQTNSWPYTFGGGTKLEIK",thrombolytic activity on white clots,[2],minimal effects with no perfusion at 1 hour
same,reduction in thrombus area,"[5]; […] (Table 2), 60 min perfusion",22±11%

# From US20230372272A1, “USE OF CYSTINE AND DERIVATIVES THEREOF AS ANTI-THROMBOTIC AND THROMBOLYTIC AGENTS” (Georgia Tech Research Corporation, priority 2020, published 2023)
